The values that follow come from PMC4254541 (Bioorganic & medicinal chemistry letters, 2014).

A word on the EC50: it is the midpoint of the concentration-response curve.

Where two headings read alike, the source gives them in different places.

Common to all, as to format: binding
The test system of one test is Aβ40 and Aβ42 fibrils. In words: Displacement of tritiated 1a from Aβ fibrils. The settings on record: benzothiazole ligands versus tritiated 1a on Aβ fibrils.
For test [1], the target named is synthetic Aβ(1–40) fibrils (Homo sapiens, UniProt P05067). In words: Displacement of 5 nM [3H]-1a.
synthetic Aβ(1–40) fibrils, sequence (P05067 672-711): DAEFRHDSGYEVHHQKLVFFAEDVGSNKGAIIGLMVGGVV
Test [2] deals with synthetic Aβ(1–42) fibrils (Homo sapiens, UniProt P05067). Description: Displacement of 5 nM [3H]-1a.
synthetic Aβ(1–42) fibrils, sequence (P05067 672-713): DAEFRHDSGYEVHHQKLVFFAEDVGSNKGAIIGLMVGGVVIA
The mark [3] stands for this setting: read-out: Aβ(1–40) EC50, displacement of 5 nM [3H]-1a from synthetic Aβ(1–40) fibrils.
Where [4] appears, read: read-out: Aβ(1–42) EC50, displacement of 5 nM [3H]-1a from synthetic Aβ(1–42) fibrils.

With `Cc1ccc2c(c1)sc(-c1ccc(N(C)C)cc1)[n+]2C.[Cl-]` [ThT, Thioflavine T], in the test with Aβ40 and Aβ42 fibrils, the “displacing 1a” value is “ineffective”. As for `CC(C)Cc1ccc(C(C)C(=O)O)cc1` (stereo not drawn) [ibuprofen], the EC50 in test [1] and in test [2] was above 10 µM throughout. For the compound `O=C(O)c1cc(/N=N/c2ccc(-c3ccc(/N=N/c4ccc(O)c(C(=O)O)c4)cc3)cc2)ccc1O` [Chrysamine G], the EC50 in test [1] came out at 9 µM; in test [2], 0.9 µM. For the compound `Nc1c(/N=N/c2ccc(-c3ccc(/N=N/c4cc(S(=O)(=O)O)c5ccccc5c4N)cc3)cc2)cc(S(=O)(=O)O)c2ccccc12` [Congo Red], the figures for the EC50 in test [1] and in test [2] were 2.3 µM and 0.7 µM, respectively. primulin: the EC50 in test [1] (setting [3]) and in test [2] (setting [4]) was above 10 µM each time. With Thioflavin S [ThS], the concentration giving a half-maximal response (EC50) in test [1] (setting [3]) and in test [2] (setting [4]) was above 10 µM each time.

For `CNc1ccc(-c2nc3ccc(O)cc3s2)cc1` [PIB, Pittsburgh Compound B], the “displacing 1a” value in the test on Aβ40 and Aβ42 fibrils was “ineffective”. Consider `Oc1ccc(/C=C/c2ccc(/C=C/c3ccc(O)cc3)c(Br)c2)cc1` [K114, (E,E)-1-bromo-2,5-bis(4’-hydroxystyryl)benzene], for which the EC50 in test [1] was above 10 µM; in test [2], 3 µM.

Regarding `O=C(O)c1cc(/C=C/c2ccc(/C=C/c3ccc(O)c(C(=O)O)c3)c(Br)c2)ccc1O` [BSB], the EC50 is 0.23 µM in test [1] and 0.12 µM in test [2]. Turning to `COc1cc(/C=C/c2ccc(N)cc2)ccc1/C=C/c1ccc(N)cc1` [BMB, (E,E)-1-methoxy-2,5-bis(4’-aminostyryl)benzene], the EC50 in test [1] is above 10 µM; in test [2], 3 µM. In the case of `COc1ccc2cc([C@H](C)C(=O)O)ccc2c1` [naproxen], the EC50 in test [1] and in test [2] was above 10 µM in each case. For the compound `CNc1ccc(-c2nc3ccccc3s2)cc1` [BTA-1, 2-(4´-methylaminophenyl)benzothiazole], the “displacing 1a” value with Aβ40 and Aβ42 fibrils is “ineffective”.
